Measurements as given in patent US20080255206A1, “Rxr Agonists and Antagonists, Alone or in Combination with Ppar Ligands, in the Treatment of Metabolic and Cardiovascular Diseases” (priority 2005, published 2008).

Assays:
db/db mice = assay: Investigation with db/db mice (blood glucose and lipids); format: in vivo, mouse; settings: for Glucose Diff. D o − D 12 / HDL-cholesterol Diff. D o − D 12 / Total cholesterol Diff. D o − D 12 / Triglycerides Diff. D o − D 12: change day 0 to day 12; for Glucose D o / HDL-cholesterol D o / Total cholesterol D o / Triglycerides D o: day 0; for HDL-cholesterol D 12 / Total cholesterol D 12 / Triglycerides D 12 / Glucose D 12: day 12; for Glucose D-4 / HDL-cholesterol D-4 / Total cholesterol D-4 / Triglycerides D-4: day −4
Protocol: The following compounds are investigated and compared to placebo (vehicle control).
The mentioned 3 compounds are tested in db/db mice during a time when diabetes is in a rapid developing stage. […] Each dosage group and the vehicle group comprise 7 mice. The suspensions used are prepared with peroxide free arachis oil as vehicle. Blood samples are collected by retro-orbital bleeding at days −4, 0 and 12. The blood levels of glucose, triglycerides, total cholesterol, and HDL-cholesterol are determined.
For evaluation of efficacy, the difference between the values of glucose, triglycerides, total cholesterol and HDL-cholesterol changing from day 0 to day 12 is determined and expressed in %. […] Overall evaluation consists in determining the efficacy of the compounds by calculating the whole extent of the effect expressed in %. […] This value is considered as a valuable indicator for the efficacy of the investigated compounds administered in a tolerated dose.

RXRα Homodimer = target: T1, RXRα Homodimer (Homo sapiens, UniProt P19793); assay: RXRα homodimer activation (transactivation) assay; format: cell-based
T1 construct: expressed in transfected cells; host or cells: mammalian cells (BHK21, CV1, etc)
T1 sequence (P19793 1-462): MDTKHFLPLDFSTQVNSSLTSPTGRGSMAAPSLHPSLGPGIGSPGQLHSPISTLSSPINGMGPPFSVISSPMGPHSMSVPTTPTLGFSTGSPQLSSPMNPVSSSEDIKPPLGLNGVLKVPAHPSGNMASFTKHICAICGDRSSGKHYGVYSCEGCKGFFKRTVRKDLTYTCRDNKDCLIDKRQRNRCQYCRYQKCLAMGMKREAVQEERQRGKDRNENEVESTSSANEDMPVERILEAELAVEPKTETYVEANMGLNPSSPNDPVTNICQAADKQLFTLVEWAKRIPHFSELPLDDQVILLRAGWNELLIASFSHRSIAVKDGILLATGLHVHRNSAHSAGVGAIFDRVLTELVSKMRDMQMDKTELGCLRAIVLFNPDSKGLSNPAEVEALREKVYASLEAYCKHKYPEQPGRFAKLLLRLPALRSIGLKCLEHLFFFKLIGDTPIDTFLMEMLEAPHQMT
Text: (§1) Nuclear hormone receptor (NHR) ligand dependent transcriptional transactivation assay.
This secondary in vitro functional assay to characterize hits from the primary ligand binding screens is a GAL4-LBD transactivation assay. The Gal4-LBD protein consists of an in frame fusion of the transcription factor galactose 4 DNA binding domain from S.cerevisiae with the ligand binding domain (LBD) of a particular NHR. Briefly, a plasmid construct expressing the recombinant chimeric receptor is co-transfected into mammalian cells (BHK21, CV1, etc) with a luciferase reporter plasmid containing several copies in tandem of the GAL4 binding sites (promoter recognition elements) upstream from the minimal promoter driving the luciferase gene. The transfected cells are treated with compounds for 12-24 hours, lysates are produced and assayed for luciferase activity and normalized to internal standards such as GH, growth hormone or SEAP, secreted alkaline phosphatase. Ligand binding stabilizes the LBD conformation that recruits endogenous co-factors that mediate eventually the increased transcriptional activity of the luciferase reporter gene. By comparing the activation profile of a reference ligand or a natural ligand, the EC50 values for agonistic activity of a particular ligand can be measured. The extent of activation that can be measured is indicative of a partial, respectively full agonistic activity of a ligand. […]

RXRα [1] = target: T2, RXRα (Homo sapiens, UniProt P19793); assay: Retinoid activation assay, RXRα (Schneider SL-3 cells, luciferase reporter); format: cell-based; settings: read-out: Activation EC50 RXR α
T2 sequence (P19793 1-462): T1 sequence (P19793 1-462)
Protocol: Full length RXR cDNA is used for transfection. As reporter system, the luciferase gene is used in a construct with three copies of a RXR response element from rat CRBP gene, (formerly RARE from betaRAR gene), fused to alcoholdehydrogenase gene promoter in the plasmid pGL2-basic. Schneider SL-3 cells from Drosophila are transiently transfected 3-4 h before the experiment by the Ca-phosphate-DNA coprecipitation method. […] At the end of the incubation, the cell supernatants are assayed for luciferase activity. Results are given as EC50 (nM), the concentration leading to half-maximal activation.

RXRγ = target: T3, RXRγ (Homo sapiens, UniProt P48443); assay: Retinoid binding assay, RXRγ; parameters: made in house; host or cells: E. coli; settings: [3H] 9-cis retinoic acid 20 nM; read-out: Binding Affinity IC50 RXR γ
T3 sequence (P48443 1-463): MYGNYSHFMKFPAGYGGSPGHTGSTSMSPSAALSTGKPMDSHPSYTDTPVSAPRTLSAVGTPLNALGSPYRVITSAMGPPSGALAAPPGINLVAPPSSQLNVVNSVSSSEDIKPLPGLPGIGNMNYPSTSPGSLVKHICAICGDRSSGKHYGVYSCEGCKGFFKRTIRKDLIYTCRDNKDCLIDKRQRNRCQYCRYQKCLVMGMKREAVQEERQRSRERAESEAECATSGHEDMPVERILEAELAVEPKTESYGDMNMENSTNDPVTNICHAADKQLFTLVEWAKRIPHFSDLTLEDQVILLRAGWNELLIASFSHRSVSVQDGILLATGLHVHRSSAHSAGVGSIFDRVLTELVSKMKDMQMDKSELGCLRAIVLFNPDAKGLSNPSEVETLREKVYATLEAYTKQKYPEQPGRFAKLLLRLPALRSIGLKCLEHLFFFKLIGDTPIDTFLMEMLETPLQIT
Text: (§2) The DEF domains of RAR's and the full length RXR's, expressed in E.coli, are used to measure competitive retinoid binding. […] 9-cis retinoic acid (for RXR's), respectively. […] Separation of bound from free radioactivity is achieved by charcoal/dextran (RAR's) or by desalting columns (RXR's). […] Retinoid Activation Assays

PPARγ/RXRα Heterodimer = target: T4, PPARγ/RXRα Heterodimer (Homo sapiens, UniProt P19793); assay: PPARγ/RXRα heterodimer activation (transactivation) assay; format: cell-based
T4 construct: co-transfected with plasmids expressing the full length RXR heteropartner receptor; expressed in transfected cells
T4 sequence (P19793 1-462): T1 sequence (P19793 1-462)
T4 sequence (P37231 1-505 partner): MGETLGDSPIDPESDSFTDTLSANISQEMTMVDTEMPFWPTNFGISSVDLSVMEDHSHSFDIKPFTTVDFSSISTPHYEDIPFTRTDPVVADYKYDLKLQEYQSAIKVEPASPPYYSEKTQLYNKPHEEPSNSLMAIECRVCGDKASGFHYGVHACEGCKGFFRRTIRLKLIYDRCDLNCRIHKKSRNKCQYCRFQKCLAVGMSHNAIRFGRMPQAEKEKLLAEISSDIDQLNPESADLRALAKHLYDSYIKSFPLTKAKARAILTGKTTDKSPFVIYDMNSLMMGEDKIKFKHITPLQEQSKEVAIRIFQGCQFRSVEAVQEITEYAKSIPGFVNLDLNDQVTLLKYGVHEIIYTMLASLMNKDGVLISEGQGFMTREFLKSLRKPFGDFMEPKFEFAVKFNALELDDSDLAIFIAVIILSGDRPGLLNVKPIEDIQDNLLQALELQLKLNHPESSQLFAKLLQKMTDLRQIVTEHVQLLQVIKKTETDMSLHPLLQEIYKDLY
Text: as §1
Heterodimer reporter assays are potentially more important selection criteria for synthetic agonistic NHR ligands as they embody a more natural situation. Basically plasmids expressing the recombinant full length NHR are co-transfected with plasmids expressing the full length RXR heteropartner receptor and a reporter plasmid containing several copies of the natural responsive elements for the respective NHR driving the luciferase reporter gene.

RXRα [2] = target: T2, RXRα; assay: Retinoid binding assay, RXRα; parameters: made in house; host or cells: E. coli; settings: [3H] 9-cis retinoic acid 20 nM; read-out: Binding Affinity IC50 RXR α
Text: as §2

[3] = 30 mg/kg/day group versus vehicle group

SMILES: C=C(c1ccc(C(=O)O)cc1)c1cc2c(cc1C)C(C)(C)CCC2(C)C [Compound 2, 4-[1-(5,6,7,8-tetrahydro-3,5,5,8,8-pentamethyl-2-naphthalenyl)ethenyl]benzoic acid, reference compound]
- Glucose Diff. D o − D 12 (db/db mice; 0.3 mg/kg/day i.p.): +54.0%
- HDL-cholesterol Diff. D o − D 12 (db/db mice; 0.3 mg/kg/day i.p.): −11.8%
- Total cholesterol Diff. D o − D 12 (db/db mice; 0.3 mg/kg/day i.p.): −12.3%
- Triglycerides Diff. D o − D 12 (db/db mice; 0.3 mg/kg/day i.p.): −4.0%
- Glucose D o (db/db mice; 0.3 mg/kg/day i.p.): 189 mg/dL
- HDL-cholesterol D o (db/db mice; 0.3 mg/kg/day i.p.): 2.71 mmol/L
- Total cholesterol D o (db/db mice; 0.3 mg/kg/day i.p.): 3.99 mmol/L
- Triglycerides D o (db/db mice; 0.3 mg/kg/day i.p.): 1.98 mmol/L
- HDL-cholesterol D 12 (db/db mice; 0.3 mg/kg/day i.p.): 2.39 mmol/L
- Total cholesterol D 12 (db/db mice; 0.3 mg/kg/day i.p.): 3.50 mmol/L
- Triglycerides D 12 (db/db mice; 0.3 mg/kg/day i.p.): 1.90 mmol/L
- Glucose D-4 (db/db mice; 0.3 mg/kg/day i.p.): 144 mg/dL
- HDL-cholesterol D-4 (db/db mice; 0.3 mg/kg/day i.p.): 2.48 mmol/L
- Total cholesterol D-4 (db/db mice; 0.3 mg/kg/day i.p.): 3.96 mmol/L
- Triglycerides D-4 (db/db mice; 0.3 mg/kg/day i.p.): 1.65 mmol/L
- Glucose levels (in words) (db/db mice; 3 mg/kg/day): no significant change
- HDL-cholesterol levels (in words) (db/db mice; 3 mg/kg/day): not influenced
- Triglyceride levels (in words) (db/db mice; 3 mg/kg/day): hardly influenced
- Glucose Diff. D o − D 12 (db/db mice; 3.0 mg/kg/day i.p.): +30.4%
- HDL-cholesterol Diff. D o − D 12 (db/db mice; 3.0 mg/kg/day i.p.): −8.3%
- Total cholesterol Diff. D o − D 12 (db/db mice; 3.0 mg/kg/day i.p.): −25.4%
- Triglycerides Diff. D o − D 12 (db/db mice; 3.0 mg/kg/day i.p.): −24.8%
- Glucose D o (db/db mice; 3.0 mg/kg/day i.p.): 175 mg/dL
- HDL-cholesterol D o (db/db mice; 3.0 mg/kg/day i.p.): 2.77 mmol/L
- Total cholesterol D o (db/db mice; 3.0 mg/kg/day i.p.): 4.65 mmol/L
- Triglycerides D o (db/db mice; 3.0 mg/kg/day i.p.): 2.01 mmol/L
- Glucose D 12 (db/db mice; 3.0 mg/kg/day i.p.): 229 mg/dL
- HDL-cholesterol D 12 (db/db mice; 3.0 mg/kg/day i.p.): 2.54 mmol/L
- Total cholesterol D 12 (db/db mice; 3.0 mg/kg/day i.p.): 3.47 mmol/L
- Triglycerides D 12 (db/db mice; 3.0 mg/kg/day i.p.): 1.51 mmol/L
- Glucose D-4 (db/db mice; 3.0 mg/kg/day i.p.): 169 mg/dL
- HDL-cholesterol D-4 (db/db mice; 3.0 mg/kg/day i.p.): 2.66 mmol/L
- Total cholesterol D-4 (db/db mice; 3.0 mg/kg/day i.p.): 4.48 mmol/L
- Triglycerides D-4 (db/db mice; 3.0 mg/kg/day i.p.): 1.97 mmol/L
- Glucose levels (in words) (db/db mice; 30 mg/kg/day): only hardly influenced
- HDL-cholesterol levels (in words) (db/db mice; 30 mg/kg/day): decreased
- Total cholesterol levels (in words) (db/db mice; 30 mg/kg/day): slightly lower
- Triglyceride levels (in words) (db/db mice; 30 mg/kg/day): even raises triglyceride levels
- Overall extent of the effect on blood levels of Glucose (db/db mice; [3]): +5.6%
- Overall extent of the effect on blood levels of HDL-cholesterol (db/db mice; [3]): −17.8%
- Overall extent of the effect on blood levels of Total cholesterol (db/db mice; [3]): −13.0%
- Overall extent of the effect on blood levels of Triglycerides (db/db mice; [3]): +18.3%
- Glucose Diff. D o − D 12 (db/db mice; 30 mg/kg/day i.p.): +54.8%
- HDL-cholesterol Diff. D o − D 12 (db/db mice; 30 mg/kg/day i.p.): −21.6%
- Total cholesterol Diff. D o − D 12 (db/db mice; 30 mg/kg/day i.p.): −21.8%
- Triglycerides Diff. D o − D 12 (db/db mice; 30 mg/kg/day i.p.): +40.4%
- Glucose D o (db/db mice; 30 mg/kg/day i.p.): 155 mg/dL
- HDL-cholesterol D o (db/db mice; 30 mg/kg/day i.p.): 3.10 mmol/L
- Total cholesterol D o (db/db mice; 30 mg/kg/day i.p.): 4.31 mmol/L
- Triglycerides D o (db/db mice; 30 mg/kg/day i.p.): 1.61 mmol/L
- Glucose D 12 (db/db mice; 30 mg/kg/day i.p.): 240 mg/dL
- HDL-cholesterol D 12 (db/db mice; 30 mg/kg/day i.p.): 2.43 mmol/L
- Total cholesterol D 12 (db/db mice; 30 mg/kg/day i.p.): 3.37 mmol/L
- Triglycerides D 12 (db/db mice; 30 mg/kg/day i.p.): 2.26 mmol/L
- Glucose D-4 (db/db mice; 30 mg/kg/day i.p.): 128 mg/dL
- HDL-cholesterol D-4 (db/db mice; 30 mg/kg/day i.p.): 2.74 mmol/L
- Total cholesterol D-4 (db/db mice; 30 mg/kg/day i.p.): 4.24 mmol/L
- Triglycerides D-4 (db/db mice; 30 mg/kg/day i.p.): 1.75 mmol/L

SMILES: CCCCCCCOc1c(\C(C)=C/C=C/C(C)=C/C(=O)O)cc(C(C)C)cc1C(C)C [Compound 19, (2E,4E,6Z)-7-(2-Heptyloxy-3,5-diisopropyl-phenyl)-3-methyl-octa-2,4,6-trienoic acid]
- EC50 (RXRα Homodimer): > 10000 nM
- EC50 (RXRα [1]): ≥ 10000 nM
- IC50 (RXRγ): 19 nM
- EC50 (PPARγ/RXRα Heterodimer): > 10000 nM
- IC50 (RXRα [2]): 9 nM
